Numbers after ± are expanded uncertainties.
Test: refractive index (Na D-line) (dimensionless)
Conditions: 298.15 K; 101.33 kPa; Liquid; Standard Abbe refractometry
In the case of `CCO` [ethanol], the refractive index is reported as 1.3591 ± 0.0005. In the case of `CC(C)O` [propan-2-ol], the refractive index is reported as 1.3756 ± 0.0005. Work on `O` [water] yielded a refractive index of 1.3326 ± 0.0005.

Reference: the NIST ThermoML archive (doi:10.1016/j.jct.2015.11.006)
